Assay in all cases: growth of human tumour cells (NCI), 48 h
In assay [1] the test system is BT-549 breast.
The test system of assay [2] is HCT-15 colon.
Assay [3] concerns HT29 colon.
Assay [4] deals with KM12 colon.
Assay [5] relates to LOX IMVI melanoma.
Assay [6] has as its system MALME-3M melanoma.
Assay [7] has as its system NCI-H23 lung.
For assay [8], the system named is SF-295 CNS.
For assay [9], the system named is T-47D breast.
For assay [10], the system named is HL-60(TB) leukemia.

Molecules are shown by their SMILES. “And” between values parts separate entries of the source, which are not always exact repeats. Equal values may be shown once.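 Protocol summary: plate cells (96-well), add compound at 5 concentrations, incubate 48 h, interpolate endpoints linearly. The concentration for 50% growth inhibition is given as GI50. TGI denotes the concentration required for complete inhibition of growth.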

Regarding `COc1ccc2c(c1OC)-c1c(c3ccc([N+](=O)[O-])cc3c(=O)n1CCCN=[N+]=[N-])C2=O`, the GI50 is above 100 µM in assay [1]; above 100 µM in [2]; 31.7 µM in assay [3]; above 100 µM in assay [4]; 5.99 µM in assay [5]; above 100 µM in assay [6]. The GI50 in [7] is 17.5 µM; in [8] it was 3.11 µM; in assay [9], 5.29 µM. The TGI in assay [1], in [2], in assay [3], in [4], in assay [5] and in [6] was above 100 µM each time. Also, the values for the TGI in assay [7], in [8] and in assay [9] were above 100 µM, 28.4 µM and above 100 µM, respectively.
With `COc1cc(/C=C2\CC3C4CC=C5C[C@@H](N6CCCC6)CC[C@]5(C)C4CC[C@]3(C)[C@H]2OC(C)=O)ccc1OCCN1CCCCC1` (stereo not given in full), the GI50 is 2.25 µM in [1]; 1.37 µM in assay [2]; 1.55 µM in assay [3]; 0.54 µM in [4]; 1.03 µM in assay [5]; 0.164 µM in [6]. For the same compound, the GI50 in assay [7] was 1.68 µM; in assay [8], 1.85 µM; in assay [9], 2.25 µM. Further, the TGI in assay [1] was 4.13 µM; in assay [2], 2.8 µM; in assay [3] it was above 100 µM; in assay [4], 1.4 µM; in [5], 2.57 µM; in assay [6] it was 0.529 µM. The TGI in assay [7] was found to be 3.14 µM; in assay [8] it was 3.44 µM; in assay [9], 3.98 µM.
As for `O=C1C(Cl)=C(Nc2cccc(C(F)(F)F)c2)C(=O)N1Cc1ccccc1Cl`, the GI50 in assay [1] is 1.95 µM; in assay [2], 3.42 µM; in assay [3] it was 4.9 µM; in [4], 12.1 µM; in assay [5] it was 1.41 µM; in [6], 1.54 µM. Also, the GI50 in assay [7] was 5.45 µM; in assay [8], 2.39 µM; in assay [9] it was 12.8 µM. Also, the TGI in assay [1] worked out at 18.1 µM; in assay [2] it was 20.6 µM; in assay [3], 32.9 µM; in assay [4] it was 33.5 µM; in assay [5], 3.75 µM; in assay [6], 23.3 µM. Moreover, the TGI turned out to be 23.2 µM in assay [7], 24.9 µM in assay [8] and 40.7 µM in [9].
`O=C1C=CN(C2OC(CO)C(O)C2O)C(=O)C1` (stereo not given): the TGI in assay [1] was above 2500 µM; in assay [2], 625 µM and > 2500 µM; in assay [10], 625 µM and > 2500 µM; in [3], 625 µM and > 1730 µM; in assay [4], 625 µM and > 2500 µM; in assay [5], 625 µM and 788 µM. Besides, the TGI in assay [7] is above 2500 µM; in assay [8], 625 µM and > 2060 µM; in [9], above 1750 µM. The GI50 in [2] is 54.6 µM; in assay [10], 6.25 µM; in [3], 13 µM; in [4] it was 22.3 µM and 39.6 µM; in assay [7], > 625 µM and 356 µM; in assay [8], 116 µM and 59.1 µM.
In the case of `COC(=O)[C@@H](Cc1c[nH]c2ccccc12)NC(=O)/C=C/c1ccccc1`, the GI50 in [1] is 4.1 µM; in assay [2], 3.31 µM; in assay [10], 2.33 µM; in assay [3] it was 3.9 µM; in assay [4] it was 4.13 µM; in [5], 3.73 µM. Also, the GI50 in [6] was above 100 µM; in [7], 4.32 µM; in [9], 8.41 µM. The TGI in assay [1] is 71.8 µM; in assay [2] it was above 100 µM; in assay [10], 5.71 µM; in assay [3], 14.1 µM; in assay [4], 33.5 µM; in assay [5], above 100 µM. In addition, the TGI in assay [6], in assay [7] and in [9] was above 100 µM in each case.
In the case of `CN(C)CCOc1nc2c3cccnc3cc(-c3cccc(Cl)c3)c2c2ncccc12`, the GI50 is 6.11 µM in [1]; 1.05 µM in [2]; 2.08 µM in [10]; 1.01 µM in assay [3]; 1.39 µM in [4]; 0.968 µM in assay [5]. For the same compound, the GI50 is 1.51 µM in [7], 1.13 µM in assay [8] and 2.16 µM in [9]. In addition, the TGI in assay [1] was 19.9 µM; in [2], 2.7 µM; in [10], 4.5 µM; in [3], 2.27 µM; in assay [4], 3.03 µM; in assay [5] it was 4.5 µM. For the same compound, the values for the TGI in assay [7], in assay [8] and in assay [9] were 3.34 µM, 2.5 µM and 6.39 µM, respectively.
Turning to `CCN(CC)CCCCCOc1cc(O)c2c(=O)cc(-c3ccccc3)oc2c1`, the GI50 in [1] was 12.5 µM; in assay [2], 1.58 µM; in assay [10] it was 2.67 µM; in [3], 2.21 µM; in [4] it was 2.89 µM; in assay [5], 1.57 µM. Moreover, the GI50 was 1.86 µM in assay [6] and 2.87 µM in assay [8]. In addition, the TGI in [1] turned out to be 26.5 µM; in assay [2] it was 3.76 µM; in [10], 7.1 µM; in assay [3], 5.5 µM; in assay [4], 9.37 µM; in assay [5] it was 2.96 µM. Moreover, the TGI came to 4.2 µM in assay [6] and 5.69 µM in assay [8].
Consider `CC(C)c1cc(CNc2nc(Nc3cc(C4CC4)[nH]n3)cc(N3CCN(C)CC3)n2)on1`, for which the TGI in assay [1] is > 10 µM and 1.4 µM; in [2], > 10 µM and 8.47 µM; in assay [10], > 10 µM and 1.6 µM; in assay [4], > 10 µM and 10.7 µM; in [6], > 10 µM and 2.96 µM; in [7], > 10 µM and 3.37 µM. The TGI in assay [8] was > 10 µM and 2.77 µM; in assay [9], > 10 µM and 9.84 µM. Moreover, the GI50 is 0.359 µM and 0.087 µM in assay [10]; 1.61 µM and 0.276 µM in assay [6]; 1.54 µM and 0.173 µM in [7].
For the compound `CCCCCCNC(=O)Oc1ccc(/C(=C(\C)c2ccccc2)c2ccc(OCCN3CCCCC3)cc2)cc1`, the GI50 is 2.38 µM in assay [1]; 1.53 µM in assay [2]; 1.38 µM in assay [3]; 2.61 µM in assay [4]; 1.71 µM in [5]; 1.75 µM in assay [6]. The GI50 in assay [7] is 3.06 µM; in assay [8], 1.74 µM; in [9], 1.14 µM. Besides, the TGI was 7.1 µM in assay [1]; 3.52 µM in assay [2]; 3.89 µM in [3]; 7.63 µM in assay [4]; 3.09 µM in [5]; 3.46 µM in [6]. The TGI in assay [7] came out at 11.6 µM; in [8], 3.5 µM; in assay [9], 4.87 µM.

For the origin of these results see PubChem BioAssay (NCI).
